Reference: US20250304620A1, “ANTIMICROBIAL PEPTIDE AND APPLICATION THEREOF” (priority 2023, published 2025)
Converted amounts (≈) assume the structure as drawn. Marks after values point to notes of the source that are not given here. Non-standard residues stand in square brackets, D forms with d. Residues, ends and D or L forms follow the SMILES beside them. PEG2000 = polyethylene glycol 2000, conjugated to the N-terminus; PEG4000 = polyethylene glycol 4000, conjugated to the C-terminus; PEG200 = polyethylene glycol 200, conjugated to the C-terminus; PEG500 = polyethylene glycol 500, conjugated to the C-terminus; Phe(3,4-Cl2) = N[C@@H](Cc1ccc(Cl)c(Cl)c1)C(=O)O; Phe(4-CF3) = N[C@@H](Cc1ccc(C(F)(F)F)cc1)C(=O)O; Phe(3,4-F2) = N[C@@H](Cc1ccc(F)c(F)c1)C(=O)O; Phe(4-Cl) = N[C@@H](Cc1ccc(Cl)cc1)C(=O)O; Phe(4-F) = N[C@@H](Cc1ccc(F)cc1)C(=O)O; 2Nal = N[C@@H](Cc1ccc2ccccc2c1)C(=O)O; PEG1000 = polyethylene glycol 1000

How the values were obtained:
[1] = system: Staphylococcus aureus (NRS 384); test: microbe, parasite or virus in culture; format: cell-based
Excerpt: According to the Standards of Clinical and Laboratory Standards Institute (CLSI) of the USA for antimicrobial drug susceptibility test operation standards, a micronutrient serial twofold dilution method was used to determine minimum inhibitory concentrations (MICs) of all 60 peptides (S/N: LV-1˜LV-60) against Staphylococcus aureus (NRS 384). The experiment was repeated 5 times in parallel. […] An antibacterial drug Levofloxacin and an AMP Cbf-K16 (sequence of Cbf-K16: […]) were used as positive controls to evaluate the antibacterial effect of the antimicrobial peptides on Staphylococcus aureus (NRS 384).

rabbit red blood cells = format: cell-based; settings: red cells of rabbit, 1 h
Method: Fresh rabbit blood ([…]) was collected and centrifuged at 500 g for 5 min, a supernatant was discarded, and red blood cells were repeatedly washed with phosphate-buffered saline (PBS, 0.01 M, pH 7.4) until the supernatant was clear. The red blood cells (RBCs) were resuspended to 10 mL, and diluted 25-fold with PBS (0.01 M, pH 7.4) to prepare a red blood cell suspension with a concentration of about 2×10^8 RBC/mL. The AMPs were subjected to gradient dilution with normal saline (0.85%, w/v, NaCl) according to a multiple dilution method, final concentrations of the SMPs were 1.95, 3.9, 7.8, 15.6, 31.3, 62.5, 125, 250, 500, 1000, and 2000 μg/mL. 100 μl of polypeptide solution was taken and added to a 96-well plate with 5 replicates for each concentration; 100 μl of rabbit blood with a red blood cell count of about 2×10^8 RBC/mL was then added to each well, the plate was incubated at 37° C. for 1 h, centrifuged at 500 g for 5 min, 100 μl of supernatant was taken and transferred to a new 96-well plate, and an optical density (OD) at a wavelength of 541 nm was measured using a microplate reader. Triton X-100 (10 mg/mL as a starting concentration, two-fold gradient dilution) was used as a positive control group. A hemolysis rate was calculated using the following formula: Hemolysis rate (%)=[(OD541 of experimental group-OD541 of negative control group)/(OD541 of positive control group−OD541 of negative control group)]×100% Specific results of the hemolysis test are shown in Table 6. Minimum hemolytic concentration (MHC): a lowest drug concentration that can cause 10% hemolysis.

[2] = system: Pseudomonas aeruginosa ATCC 27853; test: Injectable formulations on mice infected with peritonitis; format: in vivo, ICR mice; settings: 5 mg/kg via tail vein, twice a day for 3 days, n = 10
Method: Both female and male ICR mice were used in the test, half of the female and male mice were taken and randomly assigned into groups, with 10 mice in each group, and kept in separate cages. The mice were divided into a blank control group, a negative control group, a positive control Levofloxacin group, and AMPs LV-1 to LV-30 groups. A bacterial suspension of Pseudomonas aeruginosa ATCC 27853 was prepared, a concentration of the suspension was adjusted 1×10^9 CFU/mL for subsequent use. Except for the blank control group, all other mice were injected with the bacterial suspension (0.2 mL, 1×10^9 CFU/mL), into abdominal cavity of the mice, to establish a model. After the model was successfully established, the mice were given drug immediately according to their body weights. Except for the blank control group and the negative control group, the mice in all other groups were administered the corresponding injectable formulations via tail vein, twice a day for 3 consecutive days. The mice were then observed for 14 d. The death of mice in each group was observed, and survival time of the mice was recorded. Results of the effect of the injectable formulations of AMPs LV-1 to LV-30 on the survival time of mice infected with Pseudomonas aeruginosa are shown in Table 10.

[3] = system: Escherichia coli ATCC 25922; test: Oral formulations on mice with systemic bacterial infection; format: in vivo, ICR mice; settings: 5 mg/kg gavage, three times a day for 7 days, n = 10
Method: Both female and male ICR mice were used in the test, half of the female and male mice were taken and randomly assigned into groups, with 10 mice in each group, and kept in separate cages. The mice were divided into a blank control group, a negative control group, a positive control Levofloxacin group, and AMPs LV-1 to LV-30 groups. An Escherichia coli ATCC 25922 bacterial suspension was prepared, a concentration of the suspension was adjusted 1×10^7 CFU/mL for subsequent use. Except for the blank control group, all other mice were injected with the Escherichia coli suspension (0.2 mL, 1×10^7 CFU/mL), into abdominal cavity of the mice, to establish a model. After the model was successfully established, the mice were given drug immediately according to their body weights. Except for the blank control group and the negative control group, the mice in all other groups were gavaged with different compounds, three times a day for 7 consecutive days. The mice were then observed for 14 d. The death of mice in each group was observed, and survival time of the mice was recorded. Results of the effect of the oral formulations of AMPs LV-1 to LV-30 on the survival time of mice infected with Escherichia coli are shown in Table 11.

[4] = Staphylococcus aureus (NRS 384)

| Compound | MIC against Staphylococcus aureus (NRS 384) ([1]; NRS 384) | MIC against Staphylococcus aureus (NRS 384) [1, 4] | MHC (minimum hemolytic concentration, lowest concentration causing 10% hemolysis) (rabbit red blood cells) | also measured |
| --- | --- | --- | --- | --- |
| CC(=O)N[C@@H](CCCNC(=N)N)C(=O)N[C@@H](CCCNC(=N)N)C(=O)N[C@@H](CC(C)C)C(=O)N[C@@H](CC(C)C)C(=O)N[C@@H](Cc1ccc2ccccc2c1)C(=O)N[C@@H](CCCNC(=N)N)C(=O)N[C@@H](CC(C)C)C(=O)N[C@@H](CCCNC(=N)N)C(=O)N[C@@H](Cc1ccc2ccccc2c1)C(=O)N[C@@H](CCCNC(=N)N)C(=O)N[C@@H](CCCNC(=N)N)C(N)=O [LV-31] (Ac-RRLL[2Nal]RLR[2Nal]RR-NH2) | 4 µg/mL (≈ 2.31 µM) | – | >1000 µg/mL | – |
| CC(=O)N[C@@H](CCCNC(=N)N)C(=O)N[C@@H](CCCCN)C(=O)N[C@@H](CC(C)C)C(=O)N[C@@H](CC(C)C)C(=O)N[C@@H](Cc1ccccc1)C(=O)N[C@@H](CCCNC(=N)N)C(=O)N[C@@H](CC(C)C)C(=O)N[C@@H](CCCCN)C(=O)N[C@@H](Cc1ccc2ccccc2c1)C(=O)N[C@@H](CCCNC(=N)N)C(=O)N[C@@H](CCCCN)C(N)=O [LV-33] (Ac-RKLLFRLK[2Nal]RK-NH2) | 8 µg/mL (≈ 5.01 µM) | – | >1000 µg/mL | – |
| CC(=O)N[C@@H](CCCNC(=N)N)C(=O)N[C@@H](CCCCN)C(=O)N[C@@H](CC(C)C)C(=O)N[C@@H](CC(C)C)C(=O)N[C@@H](Cc1ccc2ccccc2c1)C(=O)N[C@@H](CCCNC(=N)N)C(=O)N[C@@H](CC(C)C)C(=O)N[C@@H](CCCCN)C(=O)N[C@@H](Cc1ccccc1)C(=O)N[C@@H](CCCNC(=N)N)C(=O)N[C@@H](CCCCN)C(N)=O [LV-34] (Ac-RKLL[2Nal]RLKFRK-NH2) | 4 µg/mL (≈ 2.51 µM) | – | >1000 µg/mL | – |
| CC(=O)N[C@@H](CCCNC(=N)N)C(=O)N[C@@H](CCCCN)C(=O)N[C@@H](CC(C)C)C(=O)N[C@@H](CC(C)C)C(=O)N[C@@H](Cc1ccc(F)cc1)C(=O)N[C@@H](CCCCN)C(=O)N[C@@H](CC(C)C)C(=O)N[C@@H](CCCCN)C(=O)N[C@@H](Cc1ccc(F)cc1)C(=O)N[C@@H](CCCCN)C(=O)N[C@@H](CCCNC(=N)N)C(N)=O [LV-35] (Ac-RKLL[Phe(4-F)]KLK[Phe(4-F)]KR-NH2) | 8 µg/mL (≈ 5.15 µM) | – | >1000 µg/mL | – |
| CC(=O)N[C@@H](CCCNC(=N)N)C(=O)N[C@@H](CCCCN)C(=O)N[C@@H](CC(C)C)C(=O)N[C@@H](CC(C)C)C(=O)N[C@@H](Cc1ccc(F)c(F)c1)C(=O)N[C@@H](CCCCN)C(=O)N[C@@H](CC(C)C)C(=O)N[C@@H](CCCCN)C(=O)N[C@@H](Cc1ccc(F)c(F)c1)C(=O)N[C@@H](CCCCN)C(=O)N[C@@H](CCCNC(=N)N)C(N)=O [LV-36] (Ac-RKLL[Phe(3,4-F2)]KLK[Phe(3,4-F2)]KR-NH2) | 4 µg/mL (≈ 2.52 µM) | – | >1000 µg/mL | – |
| CC(=O)N[C@@H](CCCNC(=N)N)C(=O)N[C@@H](CCCCN)C(=O)N[C@@H](CC(C)C)C(=O)N[C@@H](CC(C)C)C(=O)N[C@@H](Cc1ccc(Cl)cc1)C(=O)N[C@@H](CCCCN)C(=O)N[C@@H](CC(C)C)C(=O)N[C@@H](CCCCN)C(=O)N[C@@H](Cc1ccc(Cl)cc1)C(=O)N[C@@H](CCCCN)C(=O)N[C@@H](CCCNC(=N)N)C(N)=O [LV-37] (Ac-RKLL[Phe(4-Cl)]KLK[Phe(4-Cl)]KR-NH2) | 4 µg/mL (≈ 2.52 µM) | – | >1000 µg/mL | – |
| C[C@H]1COc2c(N3CCN(C)CC3)c(F)cc3c(=O)c(C(=O)O)cn1c23 [Levofloxacin, reference compound] | – | – | – | MIC ([1]; Staphylococcus aureus (NRS 384), read-out: MIC against Staphylococcus aureus (NRS 384)): 1 µg/mL (≈ 2.77 µM); Number of mice that died on each day after infection: day 1 [2]: 3 Mouse; Number of mice that died on each day after infection: day 2 [2]: 1 Mouse; Number of mice that died on each day after infection: day 3 [2]: 1 Mouse; Number of mice that died on each day after infection: day 4 [2]: 1 Mouse; Number of mice that died on each day after infection: day 5 [2]: 1 Mouse; Average survival times (Days) ([2]; observed for 14 d): 5.9* Days; Number of mice that died on each day after infection: day 4 [3]: 2 Mouse; Number of mice that died on each day after infection: day 5 [3]: 2 Mouse; Number of mice that died on each day after infection: day 6 [3]: 1 Mouse; Number of mice that died on each day after infection: day 7 [3]: 1 Mouse; Number of mice that died on each day after infection: day 8 [3]: 1 Mouse; Average survival times (Days) ([3]; observed for 14 d): 8.1* Days |

Further lines, with some results ahead:

| MIC against Staphylococcus aureus (NRS 384) ([1]; NRS 384) | MIC against Staphylococcus aureus (NRS 384) [1, 4] | Compound | MHC (minimum hemolytic concentration, lowest concentration causing 10% hemolysis) (rabbit red blood cells) | also measured |
| --- | --- | --- | --- | --- |
| 8 µg/mL (≈ 4.83 µM) | – | CC(=O)N[C@@H](CCCNC(=N)N)C(=O)N[C@@H](CCCCN)C(=O)N[C@@H](CC(C)C)C(=O)N[C@@H](CC(C)C)C(=O)N[C@@H](Cc1ccc(Cl)c(Cl)c1)C(=O)N[C@@H](CCCCN)C(=O)N[C@@H](CC(C)C)C(=O)N[C@@H](CCCCN)C(=O)N[C@@H](Cc1ccc(Cl)c(Cl)c1)C(=O)N[C@@H](CCCCN)C(=O)N[C@@H](CCCNC(=N)N)C(N)=O [LV-38] (Ac-RKLL[Phe(3,4-Cl2)]KLK[Phe(3,4-Cl2)]KR-NH2) | >1000 µg/mL | – |
| 8 µg/mL (≈ 4.84 µM) | – | CC(=O)N[C@@H](CCCNC(=N)N)C(=O)N[C@@H](CCCCN)C(=O)N[C@@H](CC(C)C)C(=O)N[C@@H](CC(C)C)C(=O)N[C@@H](Cc1ccc(C(F)(F)F)cc1)C(=O)N[C@@H](CCCCN)C(=O)N[C@@H](CC(C)C)C(=O)N[C@@H](CCCCN)C(=O)N[C@@H](Cc1ccc(C(F)(F)F)cc1)C(=O)N[C@@H](CCCCN)C(=O)N[C@@H](CCCNC(=N)N)C(N)=O [LV-39] (Ac-RKLL[Phe(4-CF3)]KLK[Phe(4-CF3)]KR-NH2) | >1000 µg/mL | – |
| – | 4 µg/mL | Ac-RKLLXRLKXRK-PEG200 [LV-56] (Ac-RKLL[2Nal]RLK[2Nal]RK-PEG200) [polyethylene glycol 200 conjugated to C-terminal; X=3-(2-naphthyl)-alanine] | – | – |
| – | 8 µg/mL | Ac-RKLLXRLKXRK-PEG500 [LV-57] (Ac-RKLL[2Nal]RLK[2Nal]RK-PEG500) [polyethylene glycol 500 conjugated to C-terminal; X=3-(2-naphthyl)-alanine] | – | – |
| – | 4 µg/mL | Ac-RKLLXRLKXRK-PEG1000 [LV-58] (Ac-RKLL[2Nal]RLK[2Nal]RK-PEG1000) [polyethylene glycol 1000 conjugated to C-terminal; X=3-(2-naphthyl)-alanine] | – | – |
| – | 8 µg/mL | Ac-RKLLXRLKXRK-PEG4000 [LV-60] (Ac-RKLL[2Nal]RLK[2Nal]RK-PEG4000) [polyethylene glycol 4000 conjugated to C-terminal; X=3-(2-naphthyl)-alanine] | – | – |
| – | 4 µg/mL | PEG2000-RKLLXRLKXRK-NH2 [LV-59] (PEG2000-RKLL[2Nal]RLK[2Nal]RK-NH2) [polyethylene glycol 2000 conjugated to N-terminal; X=3-(2-naphthyl)-alanine] | – | – |
